The series deals with rodent lifetime carcinogenesis bioassay, tumor incidence TD50. Description: chronic cancer bioassays in animals – CPDB, compiled studies (AID 1745844).

Active and inactive are the calls of the source. No rule for the calls is given here.

For `CC(=O)NNc1ccccc1`, the TD50 (mouse, strain Swiss albino, females, in drinking water, site: blood vessels, lesion: angioma, dosed 111 weeks, study length 111 weeks) came out at 117 mg/kg/day; the TD50 (mouse, strain Swiss albino, females, in drinking water, site: blood vessels, lesion: angiosarcoma, dosed 111 weeks, study length 111 weeks) is 117 mg/kg/day; the TD50 (mouse, strain Swiss albino, females, in drinking water, site: blood vessels, lesion: several types, types named in the paper, dosed 111 weeks, study length 111 weeks) was 49 mg/kg/day; the TD50 (mouse, strain Swiss albino, females, in drinking water, site: liver, lesion: angioma, dosed 111 weeks, study length 111 weeks) amounted to 105 mg/kg/day; the TD50 (mouse, strain Swiss albino, females, in drinking water, site: liver, lesion: angiosarcoma, dosed 111 weeks, study length 111 weeks) was 105 mg/kg/day; the TD50 (mouse, strain Swiss albino, females, in drinking water, site: liver, lesion: several types, types named in the paper, dosed 111 weeks, study length 111 weeks) was 44.8 mg/kg/day. For the same compound, the TD50 was 413 mg/kg/day (inactive) (mouse, strain Swiss albino, females, in drinking water, site: lung, lesion: adenoma, dosed 111 weeks, study length 111 weeks); 113 mg/kg/day (mouse, strain Swiss albino, males, in drinking water, site: blood vessels, lesion: angioma, dosed 106 weeks, study length 106 weeks); 161 mg/kg/day (mouse, strain Swiss albino, males, in drinking water, site: blood vessels, lesion: angiosarcoma, dosed 106 weeks, study length 106 weeks); 59.8 mg/kg/day (mouse, strain Swiss albino, males, in drinking water, site: blood vessels, lesion: several types, types named in the paper, dosed 106 weeks, study length 106 weeks); 128 mg/kg/day (mouse, strain Swiss albino, males, in drinking water, site: liver, lesion: angioma, dosed 106 weeks, study length 106 weeks); 146 mg/kg/day (mouse, strain Swiss albino, males, in drinking water, site: liver, lesion: angiosarcoma, dosed 106 weeks, study length 106 weeks). In addition, the TD50 (mouse, strain Swiss albino, males, in drinking water, site: liver, lesion: several types, types named in the paper, dosed 106 weeks, study length 106 weeks) was 62.1 mg/kg/day. The carcinogen call runs as follows: (mouse, strain Swiss albino, males, in drinking water, site: lung, lesion: adenocarcinoma, dosed 106 weeks, study length 106 weeks) “negative (inactive)”; (mouse, strain Swiss albino, males, in drinking water, site: lung, lesion: adenoma, dosed 106 weeks, study length 106 weeks) “negative (inactive)”.

With `CCCCCC(/C=C/C=C\CCCCCCCC(=O)OC)OO` (centres undefined), the carcinogen call runs as follows: (rat, strain Wistar, males, by gavage, site: gastrointestinal tract, lesion: several types, types named in the paper, dosed 30 weeks, study length 87 weeks) “negative (inactive)”; (rat, strain Wistar, males, by gavage, site: liver, lesion: one or several types, types not named, dosed 30 weeks, study length 87 weeks) “negative (inactive)”.

Turning to `C=C1C/C(=C/C)C(=O)O[C@@H]2CCN3CC=C(COC(=O)[C@@]1(O)CO)[C@H]23`, the TD50 is, setting by setting: (mouse, strain B6C3F1, females, by gavage, site: all sites, lesion: hemangioma + hemangiosarcoma, dosed 105 weeks, study length 105 weeks) 10 mg/kg/day; (mouse, strain B6C3F1, females, by gavage, site: any site (literature study), lesion: several types, types named in the paper, dosed 105 weeks, study length 105 weeks) 0.691 mg/kg/day; (mouse, strain B6C3F1, females, by gavage, site: lung, lesion: alveolar/bronchiolar adenoma + alveolar/bronchiolar carcinoma, dosed 105 weeks, study length 105 weeks) 1.99 mg/kg/day; (mouse, strain B6C3F1, females, by gavage, site: lung, lesion: alveolar/bronchiolar adenoma, dosed 105 weeks, study length 105 weeks) 2.68 mg/kg/day; (mouse, strain B6C3F1, males, by gavage, site: all sites, lesion: hemangiosarcoma, dosed 104 weeks, study length 104 weeks) 1.63 mg/kg/day; (mouse, strain B6C3F1, males, by gavage, site: any site (literature study), lesion: several types, types named in the paper, dosed 104 weeks, study length 104 weeks) 1.09 mg/kg/day. In addition, the TD50 is, setting by setting: (mouse, strain B6C3F1, males, by gavage, site: liver, lesion: hemangiosarcoma, dosed 104 weeks, study length 104 weeks) 1.96 mg/kg/day; (mouse, strain B6C3F1, males, by gavage, site: lung, lesion: alveolar/bronchiolar adenoma + alveolar/bronchiolar carcinoma, dosed 104 weeks, study length 104 weeks) 5.57 mg/kg/day; (rat, strain Fischer 344, females, by gavage, site: all sites + liver, lesion: mononuclear-cell leukemia + hemangiosarcoma + hepatocellular adenoma, dosed 102 weeks, study length 104 weeks) 0.143 mg/kg/day; (rat, strain Fischer 344, females, by gavage, site: all sites + liver, lesion: mononuclear-cell leukemia + hepatocellular adenoma, dosed 102 weeks, study length 104 weeks) 0.234 mg/kg/day; (rat, strain Fischer 344, females, by gavage, site: all sites, lesion: hemangiosarcoma, dosed 102 weeks, study length 104 weeks) 0.446 mg/kg/day; (rat, strain Fischer 344, females, by gavage, site: all sites, lesion: mononuclear-cell leukemia, dosed 102 weeks, study length 104 weeks) 0.293 mg/kg/day. Besides, the TD50 is, setting by setting: (rat, strain Fischer 344, females, by gavage, site: any site (literature study), lesion: several types, types named in the paper, dosed 102 weeks, study length 104 weeks) 0.0706 mg/kg/day; (rat, strain Fischer 344, females, by gavage, site: liver, lesion: hemangiosarcoma, dosed 102 weeks, study length 104 weeks) 0.457 mg/kg/day; (rat, strain Fischer 344, females, by gavage, site: liver, lesion: hepatocellular adenoma + hepatoblastoma + hepatocellular carcinoma, dosed 102 weeks, study length 104 weeks) 1.2 mg/kg/day; (rat, strain Fischer 344, females, by gavage, site: liver, lesion: hepatocellular adenoma + hepatocellular carcinoma, dosed 102 weeks, study length 104 weeks) 1.2 mg/kg/day; (rat, strain Fischer 344, females, by gavage, site: liver, lesion: hepatocellular adenoma, dosed 102 weeks, study length 104 weeks) 1.63 mg/kg/day; (rat, strain Fischer 344, females, by gavage, site: thyroid gland, lesion: c-cell adenoma + c-cell adenoma, bilateral, dosed 102 weeks, study length 104 weeks) 0.62 mg/kg/day. Moreover, the TD50 is, setting by setting: (rat, strain Fischer 344, males, by gavage, site: all sites + liver, lesion: mononuclear-cell leukemia + hemangiosarcoma + hepatocellular adenoma, dosed 71 weeks, study length 71 weeks) 0.0665 mg/kg/day; (rat, strain Fischer 344, males, by gavage, site: all sites + liver, lesion: mononuclear-cell leukemia + hepatocellular adenoma, dosed 71 weeks, study length 71 weeks) 0.179 mg/kg/day; (rat, strain Fischer 344, males, by gavage, site: all sites, lesion: mononuclear-cell leukemia, dosed 71 weeks, study length 71 weeks) 0.232 mg/kg/day; (rat, strain Fischer 344, males, by gavage, site: any site (literature study), lesion: several types, types named in the paper, dosed 71 weeks, study length 71 weeks) 0.0267 mg/kg/day; (rat, strain Fischer 344, males, by gavage, site: liver, lesion: hemangiosarcoma, dosed 71 weeks, study length 71 weeks) 0.0744 mg/kg/day; (rat, strain Fischer 344, males, by gavage, site: liver, lesion: hepatocellular adenoma + hepatoblastoma + hepatocellular carcinoma, dosed 71 weeks, study length 71 weeks) 0.584 mg/kg/day. The TD50 is 0.584 mg/kg/day (rat, strain Fischer 344, males, by gavage, site: liver, lesion: hepatocellular adenoma, dosed 71 weeks, study length 71 weeks) and 0.528 mg/kg/day (rat, strain Fischer 344, males, by gavage, site: lung, lesion: alveolar/bronchiolar adenoma, dosed 71 weeks, study length 71 weeks).

For `COP(=O)(OC)OC`, the TD50 is 385 mg/kg/day (mouse, strain B6C3F1, females, by gavage, site: any site (literature study), lesion: several types, types named in the paper, dosed 103 weeks, study length 103 weeks); 6390 mg/kg/day (mouse, strain B6C3F1, females, by gavage, site: liver, lesion: hepatocellular adenoma + hepatocellular carcinoma + neoplastic nodule, dosed 103 weeks, study length 103 weeks); 3900 mg/kg/day (mouse, strain B6C3F1, females, by gavage, site: lung, lesion: alveolar/bronchiolar adenoma + alveolar/bronchiolar carcinoma, dosed 103 weeks, study length 103 weeks); 335 mg/kg/day (mouse, strain B6C3F1, females, by gavage, site: uterus, endometrium, lesion: adenocarcinoma, NOS, dosed 103 weeks, study length 103 weeks); 61300 mg/kg/day (mouse, strain B6C3F1, males, by gavage, site: lung, lesion: alveolar/bronchiolar adenoma + alveolar/bronchiolar carcinoma, dosed 103 weeks, study length 103 weeks); 73 mg/kg/day (inactive) (rat, strain Fischer 344, females, by gavage, site: any site (literature study), lesion: several types, types named in the paper, dosed 104 weeks, study length 105 weeks). The TD50 is, setting by setting: (rat, strain Fischer 344, males, by gavage, site: any site (literature study), lesion: several types, types named in the paper, dosed 104 weeks, study length 105 weeks) 54.5 mg/kg/day; (rat, strain Fischer 344, males, by gavage, site: liver, lesion: hepatocellular adenoma + hepatocellular carcinoma + neoplastic nodule, dosed 104 weeks, study length 105 weeks) 485 mg/kg/day; (rat, strain Fischer 344, males, by gavage, site: subcutaneous tissue, lesion: fibroma, dosed 104 weeks, study length 105 weeks) 123 mg/kg/day. The carcinogen call is, setting by setting: (mouse, strain B6C3F1, males, by gavage, site: any site (literature study), lesion: several types, types named in the paper, dosed 103 weeks, study length 103 weeks) “negative (inactive)”; (rat, strain BOR:WISW (Wistar), females, in drinking water, site: any site (literature study), lesion: one or several types, types not named, dosed 52 weeks, study length 52 weeks) “negative (inactive)”; (rat, strain BOR:WISW (Wistar), females, in drinking water, site: any site (literature study), lesion: several types, types named in the paper, dosed 118 weeks, study length 128 weeks) “negative (inactive)”; (rat, strain BOR:WISW (Wistar), females, in drinking water, site: liver, lesion: hepatoma, dosed 118 weeks, study length 128 weeks) “negative (inactive)”; (rat, strain BOR:WISW (Wistar), males, in drinking water, site: any site (literature study), lesion: one or several types, types not named, dosed 52 weeks, study length 52 weeks) “negative (inactive)”; (rat, strain BOR:WISW (Wistar), males, in drinking water, site: any site (literature study), lesion: several types, types named in the paper, dosed 118 weeks, study length 128 weeks) “negative (inactive)”. Besides, the carcinogen call (rat, strain BOR:WISW (Wistar), males, in drinking water, site: liver, lesion: hepatoma, dosed 118 weeks, study length 128 weeks) was “negative (inactive)”.

In general, TD50 refers to the dose at which the toxic effect under study appears in half of the subjects.

The values above are taken from PubChem BioAssay AID1745844 (Carcinogenic Potency Database (CPDB), 2022).
